Values of other authors as cited in patent publication US20160120797A1, “ANTI-ACNE COMPOSITION AND METHODS OF USE THEREOF” (priority 2014, published 2016).

Legend:
[1] = system: E. Coli
[2] = system: L. monocytogenes

## O=C(O)Cc1ccccc1Nc1c(Cl)cccc1Cl [Diclofenac sodium, 2-(2-(2,6-dichlorophenylamino)phenyl)acetic acid]
[1]
  anti-bacterial activity: anti-bacterial activity
[2]
  anti-bacterial activity: anti-bacterial activity
